For orientation: melting point means the temperature of the solid-liquid transition. In the case of `CCc1c(C)[nH]c2cc(OCCN3CCOCC3)c(Cl)cc2c1=O`, the melting point lay in the range of 270 to 271 °C.

As for `COc1cc2c(cc1O)CCN(Cc1ccc(OC)c(OC)c1OC)C2`, the melting point lay in the range of 65 to 66 °C.

Compound `Cc1ccc(S(=O)(=O)N2N=C(c3ccccc3)CC3CC=CC32)cc1` (centres undefined) had a melting point of 163 to 165 °C.

As to `O=c1nc2c(c3ncnn13)=NC(c1ccccc1)=N2`, the melting point was over 300 °C.

In turn, `CCCCOc1ccc(NC(=O)CNc2ccccc2F)cc1` showed a melting point of 92 to 94 °C.

With `O=C1c2c(Br)cccc2-n2cnc(C(=O)n3ccnc3)c2[C@@H]2CCCN12`, the melting point lay within 215 to 217 °C.

For the compound `Fc1ccc(-c2ccn(C3CCN(Cc4ccccc4)CC3)c2-c2ccncc2)cc1`, the melting point fell in the range of 132 to 139 °C.

With `NC(=O)c1sc2nccc(N3CCC(c4ccccc4)CC3)c2c1N`, the melting point was 226 to 233 °C.

In the case of `O=C1Cc2cc3c(cc2CCN1)OCO3`, the melting point is 236 to 237 °C.

As to `O=CCC(=O)Nc1ccccc1`, the melting point is 150 to 153 °C.

In turn, `CC(C)Oc1ccc(C(=O)n2nc(Nc3cccc(N4CCCCC4)c3)nc2N)cc1` registered a melting point of 121 to 124 °C.

`CCCc1nc(Nc2cccc(C(C)C)c2)nc(NC2CCN(S(C)(=O)=O)CC2)n1` displayed a melting point of 80.4 to 81.8 °C.

Compound `COC(=O)C1CCSc2cc(OC)c(OC)cc2C1=O` (centres undefined) registered a melting point of 132 to 133 °C.

In turn, `N#Cc1c(C(F)(F)F)cc(N(Cc2ccccn2)Cc2ccccn2)cc1C(F)(F)F` showed a melting point of 122 °C.

The compound `CN1CC(CCCCN2CCN(c3ccccc3)CC2)OC1=O` (centres undefined) displayed a melting point of 85 to 88 °C.

Regarding `FC(F)(F)c1ccc2cc3[nH]c(=S)[nH]c3nc2c1`, the melting point was over 320 °C.

In turn, `CC1CSC(=O)C2Cc3ccccc3N2C1=O` (centres undefined) showed a melting point of 108 to 110 °C.

`CCCc1nc2c(N)nc3ccccc3c2n1CCCCC(N)=O` showed a melting point of 202 to 203 °C.

`CC(=O)CCc1ccc2c(c1)Cc1cc(N)ccc1-2`: the melting point fell in the range of 116 to 117 °C.

`Cc1onc(C(C)(O)c2ccccc2)c1NC(=O)CCl` (centres undefined) yielded a melting point of 130 to 132 °C.

In the case of `CCOC(=O)c1cn(-c2nc(N)c(F)cc2F)c2c(F)c(F)c(F)c(NCc3ccccc3)c2c1=O`, the melting point fell in the range of 176 to 180 °C.

The compound `Cc1c(C)c2c(c(C)c1O)CCC(C)(C1N[C@H](C(=O)O)CS1)O2` (some centres undefined) registered a melting point of 184 to 186 °C.

Turning to `CC(NC(=O)C(O)c1cc(F)cc(F)c1)C(=O)NC1N=C(c2ccccc2)c2ccccc2N(C)C1=O` (centres undefined), the melting point came out at 128 °C.

The compound `O=C(NCCc1ccccn1)c1ccccc1-c1ccccc1CNS(=O)(=O)c1ccc(F)cc1` had a melting point of 130 °C.

Compound `COc1ccc2cc(C(C)NC(=O)NO)ccc2c1` (centres undefined) came in with a melting point of 174 to 176 °C.

The compound `CN(C)CC(=O)Nc1ccccc1N` had a melting point of 119 to 121 °C.

In turn, `O=C(O)c1cccc(Oc2ccnc(Cl)c2)n1` had a melting point of 183 °C.

With `O=C1c2ccccc2C(=O)N1CCCOc1cccc(CN2CCOCC2)c1`, the melting point was in the range of 90 to 93 °C.

In the case of `CCOC(=O)Cc1ccc(NC(=O)Nc2ccccc2Br)c(OC)n1`, the melting point is 160 to 163 °C.

The compound `COCSc1nccn1-c1cccc(C(=O)CC(=O)Nc2cc(-c3ccccc3F)ccc2NC(=O)OC(C)(C)C)c1` had a melting point of 83 to 86 °C.

`Cc1cc(S(=O)(=O)Nc2ccc(N)cc2)c2c(C)ccc(C(C)C)cc1-2` displayed a melting point of 88 to 90 °C.

The compound `CCOC(=O)c1cc(-n2c(=O)c(C)c(C)n(C)c2=O)ccc1Cl` displayed a melting point of 159 to 161 °C.

`O=[N+]([O-])c1cc(S(=O)(=O)NCCO)sc1Cl` registered a melting point of 99 °C.

Regarding `N#Cc1ccc(-c2cnc(-c3ccc(C#N)cc3)cn2)cc1`, the melting point was over 300 °C.

`CS(=O)(=O)ON=C(C#N)C(N)=O` registered a melting point of 136 to 142 °C.

Regarding `C#Cc1cnc2ccc(OC(SC)C(=O)NC(C)(C#N)CO)cc2c1` (centres undefined), the melting point lay in the range of 78 to 80 °C.

In turn, `CCCCCCCCCCCCn1c(=O)c(=O)[nH]c2c3ccccc3ccc21` registered a melting point of 180 °C.

Consider `COc1ccc(-c2csnn2)cc1C=O`, for which the melting point lay within 156 to 157 °C.

In the case of `CON(C)C(=O)Nc1nnc(SCc2cccnc2)s1`, the melting point lay within 142 to 144 °C.

Turning to `CCCCCCCCCCc1csc2c1S(=O)(=O)c1c(CCCCCCCCCC)csc1-2`, the melting point was in the range of 58.7 to 60.3 °C.

In the case of `CC(C)Oc1ccc(NC(=O)C2(Cl)CC2)cc1C(F)(F)F`, the melting point was in the range of 106 to 108 °C.

`Sc1nncn1Cc1ccccc1`: the melting point lay in the range of 124 to 125 °C.

Compound `CCOC(=O)c1cn(NC)c2c(F)c(F)c(F)cc2c1=O` returned a melting point of 189 °C.

`CC1=C(C(=O)N2CCCCC2)C(c2ccccc2[N+](=O)[O-])C(S(C)(=O)=O)=C(C)N1` (centres undefined): the melting point lay in the range of 275 to 276 °C.

`CC1=C(C(=O)OCOC(=O)C(C)(C)C)C(C)C(C(=O)OCOC(=O)C(C)(C)C)=C(C)N1` registered a melting point of 82 to 83 °C.

The compound `Nc1nc2ccccc2c2c1nc(CCCOc1ccccc1)n2CCCNC(=O)c1ccccc1` gave a melting point of 192 to 194 °C.

Turning to `NC(=O)c1cc(-c2cccc3cc(Cc4cccc(C(F)(F)F)c4)sc23)ccc1F`, the melting point is 169 to 170 °C.

In the case of `COC(=O)CCc1nc(-c2cc3ccccc3o2)no1`, the melting point lay in the range of 112 to 113 °C.

As for `CCc1nc2c(N)nc3cc(/C=C/C(=O)N4CCOCC4)ccc3c2n1CC1CCOCC1`, the melting point was over 260 °C.

For the compound `CC1(COC(=O)Oc2c(F)c(F)c(F)c(F)c2F)COC(=O)OC1`, the melting point fell in the range of 130 to 131 °C.

In turn, `CCOC(=O)NN=C(c1ccc(Cl)cc1)c1ccc(CS(C)=O)cc1` (centres undefined) registered a melting point of 65 to 70 °C.

`COc1ccc(-c2nn(CC(C)=O)c(=O)cc2-c2ccncc2)cc1` returned a melting point of 68.3 to 70.6 °C.

Regarding `O=C(O)c1csc2ccc(OS(=O)(=O)c3ccccc3)cc12`, the melting point fell in the range of 202 to 203 °C.

Turning to `O=S(=O)(Cl)c1cc(S(=O)(=O)Cl)c(Cl)cc1Cl`, the melting point worked out at 104 °C.

As to `Cc1cccc2c(Nc3cc(CO)cc(NC(=O)Nc4ccc(N(CCCl)CCCl)cc4)c3)c3ccccc3nc12`, the melting point was 251 to 252 °C.

Compound `CC(C)N1CC(CO)C(c2ccccc2)(c2ccccc2)C1=O` (centres undefined) came in with a melting point of 159 to 161 °C.

Take `COCCCNC(=O)c1cc2c(nc(C)n2C)c2c1CCC1(Cc3ccccc3C1)N2`: the melting point fell in the range of 188 to 189 °C.

Consider `CC(C)CN1C(=O)[C@H](CCCC#N)C[C@H]1CO`, for which the melting point lay in the range of 46 to 48 °C.

Compound `Cc1ccc2c(=O)c(OC(=O)c3ccccc3)cn(C)c2c1` returned a melting point of 200 to 202 °C.

`Cc1nc2c([N+](=O)[O-])cc(S(=O)(=O)N(C)C)cc2n1C` returned a melting point of 194 to 196 °C.

Compound `CCc1nc2c(N)nc3ccc(OCc4ccccc4)cc3c2n1CCCCNS(C)(=O)=O` gave a melting point of 186 to 191 °C.

Consider `CSc1cc(C)nc(SC)c1NC(=O)CC=CC1=C(c2ccccc2)c2ccccc2OC1`, for which the melting point lay in the range of 204 to 206 °C.

`O=C(O)c1ccc(OCCCCl)cc1` showed a melting point of 136 to 138 °C.

`[N-]=[N+]=C1C(=O)CC(c2ccccc2)CC1=O` (centres undefined) came in with a melting point of 122 to 124 °C.

In turn, `O=C1CCC(NC(=O)C(Cl)(Cl)Cl)c2ccsc21` (centres undefined) came in with a melting point of 167 to 171 °C.

`Nc1nc(O)nc(Cl)n1` had a melting point of 300 °C.

`CCOc1ccc(C2=NN(C3CCN(S(=O)(=O)c4ccc(C)cc4)CC3)C(=O)[C@@H]3CC=CC[C@H]23)cc1OCC` returned a melting point of 99 to 101 °C.

Consider `CCC(CC)Nc1cc(C)nc(Cl)c1C(=O)OC`, for which the melting point fell in the range of 82 to 84 °C.

Turning to `COC(=O)c1cc(OC)c(Cc2c(N)nc(N)nc2O)c(OC)c1`, the melting point lay in the range of 224 to 226 °C.

In turn, `Oc1cc(-c2c(F)c(F)c(F)c(F)c2F)nn1-c1ccccc1` registered a melting point of 149 to 151 °C.

As to `O=c1[nH]c2cc(Br)cc(Br)c2c(=O)n1Cc1ccccc1Cl`, the melting point was in the range of 133 to 136 °C.

`CC1COc2cccc3[nH]c(=O)n1c23` (centres undefined) gave a melting point of 137 °C.

`CC(C)(C)OC(=O)N1CC=C(c2cnc3c(c2)N(Cc2cc(Cl)ccc2Cl)CCN3)CC1` had a melting point of 92 to 95 °C.

Consider `CC1(C)CC(N2CCCCCC2=O)CC(C)(C)N1CCO`, for which the melting point is 141 to 142 °C.

`CS(=O)(=O)c1ccc2[nH]cc(CCN)c2c1`: the melting point was 134 to 138 °C.

As to `CCc1ccc2c(c1)cc(C(=O)Nc1nc(-c3c(OC)cc(C)cc3OC)n(CCC3CCCCC3)n1)n2CC(=O)OC`, the melting point came to 191 °C.

As for `CCOC(=O)c1ccc(N=C(Nc2ccc(C(=O)OCC)cc2)c2ccc(C)cc2)cc1`, the melting point fell in the range of 246 to 260 °C.

`CCOC(=O)c1cc2c(=O)n(CC)c3ccccc3n2c1` registered a melting point of 184 to 186 °C.

In turn, `CC1CCc2c(N3CCN(Cc4ccc(N)cc4)CC3)c(F)cc3c(=O)c(C(=O)O)cn1c23` (centres undefined) gave a melting point of 216 to 218 °C.

The compound `COc1cc(S(=O)(=O)c2ccncc2)ccc1NC(=O)C(C)(O)C(F)(F)F` (centres undefined) displayed a melting point of 220 to 222 °C.

`CCCCC1CCC2(C)C(=CCC3C4CCC(=O)C4(C)CCC32)C1` (centres undefined) registered a melting point of 84 to 86 °C.

The compound `CC(=O)c1nc2c(cc1F)C[C@@H]1CN(C(=O)OC(C)(C)C)C[C@@H](C)N21` registered a melting point of 178 to 180 °C.

Take `COc1ccnc(CSc2nc3cc(F)c(F)cc3[nH]2)c1C`: the melting point was 216 to 218 °C.

On to `Cc1cccc2c1CCN=C2c1ccc(Br)cc1`, for which the melting point was 60 to 61.5 °C.

`O=C1c2ccccc2C(=O)N1CC(=O)N(Cc1ccccc1)c1ccccc1` gave a melting point of 150 °C.

In turn, `Cc1ccc(C(=O)NCc2cc(C(C)(C)O)cc(C(F)(F)F)c2)cc1Nc1nccc(-c2cccnc2)n1` returned a melting point of 253 to 258 °C.

As to `Cc1ccccc1NC(=O)Nc1ccc(CC(=O)NC(CC(C)C)C2=NOC(CCC(=O)O)(CCC(=O)O)C2)cc1` (centres undefined), the melting point is 173 to 175 °C.

`CN(CCCNC(=O)c1ccc(OC(F)(F)F)cc1)CCCNC(=O)c1ccc(OC(F)(F)F)cc1` gave a melting point of 110 to 111 °C.

In turn, `COC(=O)c1cnc(CNC(=O)c2ccccc2)c2ccccc12` showed a melting point of 140 to 142 °C.

(Values after a melting point compilation (Tetko et al.; mined from patent text by program, amines drawn as free bases though some values may be those of a salt).)
